Data reported in patent US9321718B2 (CHROMA THERAPEUTICS LTD., priority 2010, dated 2016).
Where two headings read alike, the source gives them in different places.

Columns and labels:
[1] = biological target: T1, human recombinant his-tagged HSP90α (Homo sapiens, UniProt P07900); assay: HSP90 enzyme assay (HTRF, competition with biotinylated Geldanamycin); format: binding; settings: IC50 range; read-out: Enzyme Assay
T1 construct: purchased Prospec Technogene #HSP90
Procedure, shortened: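 HTRF competition: compounds (5000 to 0.3 nM, 0.5% DMSO) displace 40 nM biotinylated geldanamycin from 40 nM his-tagged HSP90α. Binding was read via Eu-cryptate anti-his/streptavidin-XL FRET after 20 h at room temperature in Hepes pH 7.3 buffer. IC50 was fitted against controls.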

[2] = tested on: TNFα release from LPS stimulated THP-1 (hCE-1 +ve) cells; assay: LPS-stimulation of THP-1 cells (TNF-α release); format: cell-based, human; settings: IC50 range, TNF-α after LPS 1 μg/ml, 6 hours, read-out: THP-1 Assay
Method: THP-1 cells are plated in […] at a density of 4×10^4 cells/well in V-bottomed 96 well tissue culture treated plates and incubated at 37° C. in 5% CO2 for 16 hours. 2 Hours after the addition of the inhibitor in 100 μl of tissue culture media, the cells are stimulated with LPS (E. Coli strain 005:B5, Sigma) at a final concentration of 1 μg/ml and incubated at 37° C. in 5% CO2 for 6 hours. TNF-α levels are measured from cell-free supernatants by sandwich ELISA (R&D Systems #QTA00B).

[3] = tested on: TNF-α levels in LPS-stimulated human whole blood; assay: LPS-stimulation of human whole blood (TNF-α levels); format: cell-based; settings: IC50 range, TNF-α after LPS 100 ng/ml, 6 hours
Method: Whole blood is taken by venous puncture using heparinised vacutainers (Becton Dickinson) and diluted in an equal volume of RPMI1640 tissue culture media (Sigma). 100 μl is then plated in V-bottomed 96 well tissue culture treated plates. 2 Hours after the addition of the inhibitor in 100 μl of RPMI1640 media, the blood is stimulated with LPS (E. Coli strain 005:B5, Sigma) at a final concentration of 100 ng/ml and incubated at 37° C. in 5% CO2 for 6 hours. TNF-α levels are measured from cell-free supernatants by sandwich ELISA (R&D Systems #QTA00B).

Row | IC50 [1] [nM] | IC50 ([2]; Homo sapiens, THP-1) [nM] | IC50 ([3]; Homo sapiens) [nM] | IC50 [2] [nM] | IC50 [3] [nM] | Molecule
1 | 100 to 1000 | 100 to 1000 | 100 to 1000 | – | – | CC(C)c1cc(C(=O)N(C)Cc2ccc(CN[C@H](C(=O)OC3CCCC3)c3ccccc3)cc2)c(O)cc1O [Example 71, cyclopentyl (2S)-[(4-{[{[2,4-dihydroxy-5-(propan-2-yl)phenyl]carbonyl}(methyl)amino]methyl}benzyl)amino](phenyl)ethanoate]
2 | < 100 | 100 to 1000 | > 1000 | – | – | CCCC[C@H](NC1CCN(C(=O)c2cc(C(C)C)c(O)cc2O)CC1)C(=O)OC1CCCC1 [Example 10, cyclopentyl N-(1-{[2,4-dihydroxy-5-(propan-2-yl)phenyl]carbonyl}piperidin-4-yl)-L-norleucinate]
3 | < 100 | – | – | > 1000 | > 1000 | cyclopentyl N-(1-{[2,4-dihydroxy-5-(propan-2-yl)phenyl]carbonyl}piperidin-4-yl)-L-valinate [Example 3]
4 | > 1000 | 100 to 1000 | > 1000 | – | – | CC(C)c1cc(C(=O)N2CCC(CCN[C@@H](Cc3ccccc3)C(=O)OC3CCCC3)CC2)c(O)cc1O [Example 40, cyclopentyl N-[2-(1-{[2,4-dihydroxy-5-(propan-2-yl)phenyl]carbonyl}piperidin-4-yl)ethyl]-L-phenylalaninate]
5 | < 100 | 100 to 1000 | 100 to 1000 | – | – | CC(C)c1cc(C(=O)N(C)Cc2cccc(CNC(C)(C)C(=O)OC3CCCC3)c2)c(O)cc1O [Example 67, cyclopentyl N-(3-{[{[2,4-dihydroxy-5-(propan-2-yl)phenyl]carbonyl}(methyl)amino]methyl}benzyl)-2-methylalaninate]
6 | < 100 | < 100 | 100 to 1000 | – | – | CC(C)C[C@H](NCCCc1ccc2c(c1)CN(C(=O)c1cc(C(C)C)c(O)cc1O)C2)C(=O)OC1CCCC1 [Example 64, cyclopentyl N-[3-(2-{[2,4-dihydroxy-5-(propan-2-yl)phenyl]carbonyl}-2,3-dihydro-1H-isoindol-5-yl)propyl]-L-leucinate]
7 | < 100 | > 1000 | > 1000 | – | – | CC(C)C[C@@H](NC1CCN(C(=O)c2cc(C(C)C)c(O)cc2O)C1)C(=O)OC1CCCC1 (stereo partly drawn) [Example 76, cyclopentyl N-(1-{[2,4-dihydroxy-5-(propan-2-yl)phenyl]carbonyl}pyrrolidin-3-yl)-D-leucinate]
8 | < 100 | 100 to 1000 | 100 to 1000 | – | – | CC(C)c1cc(C(=O)N2CCC(N[C@@H](C)C(=O)OC3CCCC3)CC2)c(O)cc1O [Example 5, cyclopentyl N-(1-{[2,4-dihydroxy-5-(propan-2-yl)phenyl]carbonyl}piperidin-4-yl)-L-alaninate]
9 | < 100 | > 1000 | > 1000 | – | – | CC(C)c1cc(C(=O)N2CCC(N[C@H](C(=O)OC3CCCC3)c3ccccc3)CC2)c(O)cc1O [Example 4, cyclopentyl (2S)-[(1-{[2,4-dihydroxy-5-(propan-2-yl)phenyl]carbonyl}piperidin-4-yl)amino](phenyl)ethanoate]
10 | < 100 | 100 to 1000 | 100 to 1000 | – | – | CC(C)C[C@H](NCc1ccc(CN(C)C(=O)c2cc(C(C)C)c(O)cc2O)cc1)C(=O)OC1CCCC1 [Example 70, cyclopentyl N-(4-{[{[2,4-dihydroxy-5-(propan-2-yl)phenyl]carbonyl}(methyl)amino]methyl}benzyl)-L-leucinate]
11 | < 100 | 100 to 1000 | 100 to 1000 | – | – | CC(C)c1cc(C(=O)N2Cc3ccc(CCNC4(C(=O)OC5CCCC5)CCCC4)cc3C2)c(O)cc1O [Example 63, cyclopentyl 1-{[2-(2-{[2,4-dihydroxy-5-(propan-2-yl)phenyl]carbonyl}-2,3-dihydro-1H-isoindol-5-yl)ethyl]amino}cyclopentanecarboxylate]
12 | < 100 | 100 to 1000 | 100 to 1000 | – | – | CC(C)C[C@H](NCCC1CCN(C(=O)c2cc(C(C)C)c(O)cc2O)CC1)C(=O)OC1CCCC1 [Example 38, cyclopentyl N-[2-(1-{[2,4-dihydroxy-5-(propan-2-yl)phenyl]carbonyl}piperidin-4-yl)ethyl]-L-leucinate]
13 | < 100 | 100 to 1000 | 100 to 1000 | – | – | CC(C)c1cc(C(=O)N2CCC(CN[C@@H](COC(C)(C)C)C(=O)OC3CCCC3)CC2)c(O)cc1O [Example 34, cyclopentyl O-tert-butyl-N-[(1-{[2,4-dihydroxy-5-(propan-2-yl)phenyl]carbonyl}piperidin-4-yl)methyl]-L-serinate]
14 | < 100 | 100 to 1000 | 100 to 1000 | – | – | CC(C)C[C@H](NCc1ccc2c(c1)CN(C(=O)c1cc(C(C)C)c(O)cc1O)C2)C(=O)OC1CCCC1 [Example 54, cyclopentyl N-[(2-{[2,4-dihydroxy-5-(propan-2-yl)phenyl]carbonyl}-2,3-dihydro-1H-isoindol-5-yl)methyl]-L-leucinate]
15 | < 100 | 100 to 1000 | < 100 | – | – | CC(C)c1cc(C(=O)N2CCC(N[C@@H](CC3CCCCC3)C(=O)OC3CCCC3)CC2)c(O)cc1O [Example 13, cyclopentyl 3-cyclohexyl-N-(1-{[2,4-dihydroxy-5-(propan-2-yl)phenyl]carbonyl}piperidin-4-yl)-L-alaninate]
16 | < 100 | < 100 | 100 to 1000 | – | – | CC(C)C[C@H](NCC1CCN(C(=O)c2cc(C(C)C)c(O)cc2O)CC1)C(=O)OC1CCCC1 [Example 21, cyclopentyl N-[(1-{[2,4-dihydroxy-5-(propan-2-yl)phenyl]carbonyl}piperidin-4-yl)methyl]-L-leucinate]
17 | < 100 | 100 to 1000 | 100 to 1000 | – | – | CC(C)c1cc(C(=O)N2CCC(NC(C)(C)C(=O)OC3CCCC3)CC2)c(O)cc1O [Example 2, cyclopentyl N-(1-{[2,4-dihydroxy-5-(propan-2-yl)phenyl]carbonyl}piperidin-4-yl)-2-methylalaninate]
18 | < 100 | 100 to 1000 | 100 to 1000 | – | – | CC(C)c1cc(C(=O)N2CCC(N[C@@H](Cc3ccccc3)C(=O)OC3CCCC3)CC2)c(O)cc1O [Example 9, cyclopentyl N-(1-{[2,4-dihydroxy-5-(propan-2-yl)phenyl]carbonyl}piperidin-4-yl)-L-phenylalaninate]
19 | < 100 | 100 to 1000 | 100 to 1000 | – | – | CC(C)c1cc(C(=O)N2CCC(CNC(C)(C)C(=O)OC3CCCC3)CC2)c(O)cc1O [Example 32, cyclopentyl N-[(1-{[2,4-dihydroxy-5-(propan-2-yl)phenyl]carbonyl}piperidin-4-yl)methyl]-2-methyl-L-alaninate]
20 | < 100 | 100 to 1000 | 100 to 1000 | – | – | CC(C)c1cc(C(=O)N2CCC(CCN[C@@H](COC(C)(C)C)C(=O)OC3CCCC3)CC2)c(O)cc1O [Example 45, cyclopentyl O-tert-butyl-N-[2-(1-{[2,4-dihydroxy-5-(propan-2-yl)phenyl]carbonyl}piperidin-4-yl)ethyl]-L-serinate]
21 | < 100 | 100 to 1000 | 100 to 1000 | – | – | CC(C)C[C@H](NCCc1ccc2c(c1)CN(C(=O)c1cc(C(C)C)c(O)cc1O)C2)C(=O)OC1CCCC1 [Example 61, cyclopentyl N-[2-(2-{[2,4-dihydroxy-5-(propan-2-yl)phenyl]carbonyl}-2,3-dihydro-1H-isoindol-5-yl)ethyl]-L-leucinate]
22 | < 100 | 100 to 1000 | 100 to 1000 | – | – | CC(C)c1cc(C(=O)N(C)Cc2ccc(CNC(C)(C)C(=O)OC3CCCC3)cc2)c(O)cc1O [Example 72, cyclopentyl N-(4-{[{[2,4-dihydroxy-5-(propan-2-yl)phenyl]carbonyl}(methyl)amino]methyl}benzyl)-2-methylalaninate]
23 | < 100 | < 100 | 100 to 1000 | – | – | CC(C)c1cc(C(=O)N2Cc3ccc(CN[C@@H](C)C(=O)OC4CCCC4)cc3C2)c(O)cc1O [Example 59, cyclopentyl N-[(2-{[2,4-dihydroxy-5-(propan-2-yl)phenyl]carbonyl}-2,3-dihydro-1H-isoindol-5-yl)methyl]-L-alaninate]
24 | 100 to 1000 | > 1000 | > 1000 | – | – | CC(C)c1cc(C(=O)N(C)Cc2cccc(CN[C@H](C(=O)OC3CCCC3)c3ccccc3)c2)c(O)cc1O [Example 69, cyclopentyl (2S)-[(3-{[{[2,4-dihydroxy-5-(propan-2-yl)phenyl]carbonyl}(methyl)amino]methyl}benzyl)amino](phenyl)ethanoate]
25 | < 100 | 100 to 1000 | 100 to 1000 | – | – | CC(C)c1cc(C(=O)N2CCC(CN[C@@H](Cc3ccccc3)C(=O)OC3CCCC3)CC2)c(O)cc1O [Example 23, cyclopentyl N-[(1-{[2,4-dihydroxy-5-(propan-2-yl)phenyl]carbonyl}piperidin-4-yl)methyl]-L-phenylalaninate]
